According to US7709465B2, “Phosphorous containing compounds including triphenylmethylphosphonate esters for the treatment of melanoma and other cancers” (The Board of Trustees of the University of Illinois, priority 2006, dated 2010):

Experiments:
Assay type in all cases: cell-based
ACHN = test: High-throughput cell death assay I, ACHN; details: renal (human), read-out: diethyl TPMP IC50
Source text: (§1) Compound CX5 was further tested using the same high-throughput cell death assay I for activity in inducing death in multiple cell lines representing a variety of cancer types.

B16-F10 = test: High-throughput cell death assay I, B16-F10; details: B16-F10, melanoma (mouse); read-out: diethyl TPMP IC50
Source text: as §1

Hs578t = test: High-throughput cell death assay I, Hs578t; details: Hs-578T, breast (human), read-out: diethyl TPMP IC50
Source text: as §1

HL-60 = test: High-throughput cell death assay I, HL-60; details: HL-60, leukemia (human); read-out: diethyl TPMP IC50
Source text: (§2) According to the American Type Culture Collection (ATCC), U-937 is a human cell line of histiocytic lymphoma tissue with monocyte morphology. See Sundstrom C, Nilsson K, Int. J. Cancer 17: 565-577, 1976. Also according to ATCC, HL-60 is a human cell line of a tissue type described as peripheral blood, promyeloblast, and acute promyelocytic leukemia, with myeloblastic morphology. See Gallagher R, et al., Blood 54: 713-733, 1979.
as §1

SK-MEL-5 = test: High-throughput cell death assay I, SK-MEL-5; details: SK-MEL-5, melanoma (human); read-out: diethyl TPMP IC50
Source text: as §1

SK-N-SH = test: High-throughput cell death assay I, SK-N-SH; details: neuroblastoma (human), read-out: diethyl TPMP IC50
Source text: as §1

MDA-MB-231 = test: High-throughput cell death assay I, MDA-MB-231; details: Homo sapiens, read-out: diethyl TPMP IC50
Source text: as §1

K562 = test: High-throughput cell death assay I, K562; details: K562, leukemia (CML, human); read-out: diethyl TPMP IC50
Source text: as §1

NCI-H226 = test: High-throughput cell death assay I, NCI-H226; details: NCI-H226, lung (human); read-out: diethyl TPMP IC50
Source text: as §1

U-937 = test: High-throughput cell death assay I, U-937; details: U-937, lymphoma (human); read-out: diethyl TPMP IC50
Source text: as §2, §1

CRL-1782 = test: High-throughput cell death assay I, CRL-1782; details: CRL-1782, melanoma (human); read-out: diethyl TPMP IC50
Source text: as §1

For `CCOP(=O)(OCC)C(c1ccccc1)(c1ccccc1)c1ccccc1` [CX5], the IC50 (ACHN) was 9.69 µM, the IC50 (B16-F10) was 0.81 µM and the IC50 (Hs578t) was 13.2 µM. The IC50 (HL-60) was 13.2 µM, the IC50 (SK-MEL-5) was 3.39 µM and the IC50 (SK-N-SH) was 1.8 µM. It also gave an IC50 (MDA-MB-231) of 1.09 µM, an IC50 (K562) of 3.27 µM and an IC50 (NCI-H226) of 6.56 µM. It also gave an IC50 (U-937) of 11.6 µM and an IC50 (CRL-1782) of 1.41 µM.
